Data from patent US20230322657A1, “CRYSTALLINE EDG-2 RECEPTOR ANTAGONIST AND METHODS OF MAKING” (Sanofi, priority 2020, published 2023).
In brackets after ≈: the same amount, converted by molar mass.

Assays:
[1] = Estimated hot solubility in solvents at elevated temperature (approximately solvent boiling point); assay type: physicochemical
Method: Compound I was dissolved in a variety of solvents at elevated temperature (approximately at solvent boiling point) to provide solutions of Compound I with a maximum concentration of 15 mg/mL. The input material in these experiments was a mixture of polymorphic forms 1, 2, and 3.
When concentrations of Compound I was greater than 2 mg/mL, the solutions were filtered and evaporated at 25° C. to isolate the solid.

[2] = tested on: mouse model of skin fibrosis; conditions: cited from earlier work
[3] = tested on: patients with diffuse cutaneous systemic sclerosis SSc (dcSSc); conditions: cited from earlier work
[4] = Slurry conversion study at 40-70° C., Form 1/Form 2 1:1 mixture; assay type: physicochemical
Method: Slurry converstion studies were also conducted at 40-70° C. with Forms 1 and 2 to determine a transition temperature between the forms. A mixture of Form 1 and Form 2 at a (1:1 ratio) was slurried at 40° C., 50° C., 60° C., and 70° C. in two different solvents at each temperature and then analyzed to determine the direction of transformation. At 40° C. and 50° C., Methanol and MEK were used. At 60° C. and 70° C. MEK and 1-Pentanol were used.

[5] = Slurry stability study at room temperature (25° C.), 4 weeks, analysis by FTIR; assay type: physicochemical; conditions: for Final form after slurry: 25° C., 4 weeks, FTIR
Method: Slurry stability Maturation studies were initially conducted for the purpose of identifying the most […] stable form at room temperature (25° C.
In this set of experiments, both the individual forms and mixtures of forms were slurried in several solvents for 4 weeks, then filtered and analyzed to determine the resulting form. The first set of experiments included pure Form 1, Form 2, Form 3, and mixtures of these forms in equal amounts. The solvents included methanol, ethyl acetate, MEK, and methyl THF in order to investigate a range of solvent polarity. Additional experiments were conducted with a mixture of Form 1 and Form 4 in MEK and methanol.
Analysis was performed by FTIR due to ease of analysis for small quantities. It is interesting to note that the acid carbonyl is shifted to a different location for each polymorph. The results for the first set of experiments are listed below, comparing the starting form with the final form.

[6] = Solubility of polymorphs at pH 7.4 in phosphate buffer at 25° C.; assay type: physicochemical; conditions: pH 7.4 phosphate buffer; for Solubility, concentration (equilibrium): 24 hr
Method: The solubility of the different polymorphs was determined at pH 7.4 in phosphate buffer at 25° C. Samples were analyzed as a function of time for each form to determine the equilibrium values. The residual solids from each sample were analyzed to verify that the form was unchanged during the experiment. The concentration (mg/mL) versus time data is listed below for each form: […]

[7] = Dynamic vapor sorption (DVS); assay type: physicochemical; conditions: 25° C.
Method: Moisture sorption/desorption isotherms are recorded on a DVS-1 from SURFACE MEASUREMENT SYSTEMS. Two cycles are run at 25° C., in which the Relative Humidity (RH) is stepped from 0 to 95% and back to 0%. The data is evaluated with the software DVSWin V. 2.15.

SMILES: COc1ccc(C(=O)NC2(C(=O)O)Cc3ccccc3C2)cc1OCCc1cccc(C)c1 [Compound I, 2-(4-methoxy-3-(3-methylphenethoxy)benzamido)-2,3-dihydro-1H-indene-2-carboxylic acid]
- Hot Solubility (est) ([1]; 1-Butanol): >10000 µg/mL
- Hot Solubility (est) ([1]; 1-Pentanol): >10000 µg/mL
- Hot Solubility (est) ([1]; Acetone): >10000 µg/mL
- Hot Solubility (est) ([1]; Ethanol): >10000 µg/mL
- Hot Solubility (est) ([1]; Hexane): <2000 µg/mL
- Hot Solubility (est) ([1]; Isobutyl Alcohol): >10000 µg/mL
- Hot Solubility (est) ([1]; Methanol): >10000 µg/mL
- Hot Solubility (est) ([1]; Water): <2000 µg/mL
- Collagen content [2]: reduced
- Dermal thickening [2]: reversed
- Myofibroblast differentiation [2]: significantly inhibited
- Outcome measures [3]: improved
- Target engagement [3]: demonstrated

SMILES: COc1ccc(C(=O)NC2(C(=O)O)Cc3ccccc3C2)cc1OCCc1cccc(C)c1 [mixture of Form 1 and Form 2]
- Form after slurry (direction of transformation) ([4]; 1-Pentanol, 60° C.): Form 2
- Form after slurry (direction of transformation) ([4]; 1-Pentanol, 70° C.): Form 2
- Form after slurry (direction of transformation) ([4]; MEK, 40° C.): Form 1
- Form after slurry (direction of transformation) ([4]; MEK, 50° C.): Form 1
- Form after slurry (direction of transformation) ([4]; MEK, 60° C.): Form 2
- Form after slurry (direction of transformation) ([4]; MEK, 70° C.): Form 2
- Form after slurry (direction of transformation) ([4]; Methanol, 40° C.): Form 1
- Form after slurry (direction of transformation) ([4]; Methanol, 50° C.): Form 1

SMILES: COc1ccc(C(=O)NC2(C(=O)O)Cc3ccccc3C2)cc1OCCc1cccc(C)c1 [mixtures of Form 4 and Form 1]
- Final form after slurry ([5]; MEK): Form 1
- Final form after slurry ([5]; Methanol): Form 1

SMILES: COc1ccc(C(=O)NC2(C(=O)O)Cc3ccccc3C2)cc1OCCc1cccc(C)c1 [Forms 1, 2, 3]
- Final form after slurry ([5]; MEK): Form 1
- Final form after slurry ([5]; Methanol): Form 1
- Final form after slurry ([5]; Methyl THF): Form 1

SMILES: COc1ccc(C(=O)NC2(C(=O)O)Cc3ccccc3C2)cc1OCCc1cccc(C)c1 [Form 3, 2-(4-methoxy-3-(3-methylphenethoxy)benzamido)-2,3-dihydro-1H-indene-2-carboxylic acid]
- Final form after slurry ([5]; Ethyl Acetate): Form 1
- Final form after slurry ([5]; MEK): Form 1
- Final form after slurry ([5]; Methanol): Form 1
- Final form after slurry ([5]; Methyl THF): Form 1
- Equilibrium solubility at 24 hours compared with Form 1 [6]: more than double
- Solubility, concentration (equilibrium) [6]: 97 µg/mL (≈ 218 µM)

SMILES: COc1ccc(C(=O)NC2(C(=O)O)Cc3ccccc3C2)cc1OCCc1cccc(C)c1 [Form 2, 2-(4-methoxy-3-(3-methylphenethoxy)benzamido)-2,3-dihydro-1H-indene-2-carboxylic acid]
- Final form after slurry ([5]; Ethyl Acetate): Form 2
- Final form after slurry ([5]; MEK): Form 1
- Final form after slurry ([5]; Methanol): Form 2
- Final form after slurry ([5]; Methyl THF): Form 2
- solubility at 24 h ([6]; aqueous buffer, thermodynamic from solid, read-out: Solubility, concentration (equilibrium)): 57 µg/mL (≈ 128 µM)
- 24 hour solubility, greater than Form 1 by [6]: more than 30%

SMILES: COc1ccc(C(=O)NC2(C(=O)O)Cc3ccccc3C2)cc1OCCc1cccc(C)c1 [Form 4, 2-(4-methoxy-3-(3-methylphenethoxy)benzamido)-2,3-dihydro-1H-indene-2-carboxylic acid]
- Equilibrium solubility at 24 hours compared with Form 1 [6]: more than double
- Solubility, concentration (equilibrium) [6]: 102 µg/mL (≈ 229 µM)

SMILES: COc1ccc(C(=O)NC2(C(=O)O)Cc3ccccc3C2)cc1OCCc1cccc(C)c1 [Form 1, 2-(4-methoxy-3-(3-methylphenethoxy)benzamido)-2,3-dihydro-1H-indene-2-carboxylic acid]
- Final form after slurry ([5]; Ethyl Acetate): Form 1
- Final form after slurry ([5]; MEK): Form 1
- Final form after slurry ([5]; Methanol): Form 1
- Final form after slurry ([5]; Methyl THF): Form 1
- Relative stability of the crystal forms ([5]; room temperature (25° C.)): most stable form
- Reversible water uptake (bound) [7]: less than 1%
- Reversible water uptake ([7]; between 0 and 95% RH): ~−0.1 % w/w
